Like-named read-outs stand apart in the source and are kept apart here.
What was measured:
SNU-16 cells = assay: SNU-16 cell-based viability assay (CellTiter-Glo); conditions: Homo sapiens
Source text: For determining the covalent nature of compounds, a simple cell-based assay was employed. SNU-16 cells were obtained from ATCC (Cat #CRL-5974; American Type Culture Collection; Manassas, Va. 20110) for this assay. SNU-16 is a cultured line derived in 1987 by J. Park and associates from ascites of a patient with poorly differentiated gastric carcinoma of the stomach, and cells were collected from the patient prior to chemotherapy. The cells express the surface glycoproteins carcinoembryonic antigen (CEA) and TAG-72. No evidence of amplification or rearrangements has been noted in the N-myc, L-myc, myb and EGF receptor genes, although the c-myc proto-oncogene is amplified. There was no expression of the following genes: N-myc, L-myc, c-cis, IGF-2, or gastrin releasing peptide. These cells are known to have an FGFR2 amplification and are therefore relevant for the compound testing at hand (1). For this assay, cells were plated on poly-D-lysine to maintain attachment. Cells were either exposed to compound for 2 hours or 72 hours to test the ability of the compound to stay on target after binding. Briefly, 80 μL cell solution containing 5000 SNU-16 cells was plated per well into 96-well Poly-D-Lysine Cellware plate and incubated in 37° C. incubator overnight to facilitate adherence. Compounds were solubilized fresh from powder as dimethylsulfoxide stocks (DMSO), and plated as half log, 9 point dilutions in DMSO and then plated into cell media containing RPMI1640+10% FBS for ease of transfer without disrupting cells. Total volume in cells was 100 uL. For cells exposed to compound for two hours, cells were incubated in 37° C. incubator for 2 hours, upon which time plates were removed and cells were centrifuged at 1500 rpm for 5 min, followed by removal of all supernatant, and the re-dispense 100 μL of RPMI1640+10% FBS per well. This was repeated twice. Plates were put back into the incubator for 72 hours. For cells exposed to compound for 72 hours, plates were removed from the incubator for the time of washing but not disturbed, and then placed back in the incubator without washing. Assay plates were read for total ATP by luminescent CTG signal at the end of the 72 hour incubation by adding 100 μL of CTG (Cell TiterGlo: Cat #G9241; Promega Corporation, Madison, Wis., 53711) per well, followed by gently agitating the contents for 2 min on the plate shaker, and incubating the plates for 10 min at room temperature in dark. […] Clin Cancer Res 2010; 16:5750-8.

Human FGFR2 wildtype = molecular target: T1, Human FGFR2 wildtype (Homo sapiens, UniProt P21802); assay: FGFR2 wildtype kinase assay (Reaction Biology HotSpot); type: biochemical; conditions: ATP at Km; read-out: FGFR2 (WT) Km IC50
T1 construct: purchased Reaction Biology Corporation (contract assay; enzyme is the CRO's own)
Procedure: (§1) Biochemical assays were run at Reaction Biology (Reaction Biology Corporation, 1 Great Valley Parkway, Suite 2, Malvern, Pa. 19355, USA). The Reaction Biology (http://www.reactionbiology.com) HotSpot assay platform was used to measure kinase/inhibitor interactions as described previously (Anastassiadis et al., 2011). In brief, for each reaction, kinase and substrate were mixed in a buffer containing 20 mM HEPES (pH 7.5), 10 mM MgCl2, 1 mM EGTA, 0.02% Brij35, 0.02 mg/mL BSA, 0.1 mM Na3VO4, 2 mM DTT, and 1% DMSO. All compounds were in powder form and freshly solubilized in DMSO for assays. Compounds were then added to each reaction mixture via acoustic dispensing using an ECHO 550 nanoliter dispenser. For Human FGFR2 wildtype testing, a peptide substrate, poly[Glu:Tyr] (4:1) was used to promote the reaction at a concentration of 0.2 mg/ml, with a final ATP concentration as determined by Reaction Biology. For Human FGFR2 (V565F) testing, a peptide substrate, poly[Glu:Tyr] (4:1) was used to promote the reaction at a concentration of 0.2 mg/ml, with a final ATP concentration as determined by Reaction Biology. Compounds were tested in 10-dose IC50 mode with a 3-fold serial dilution. After a 20-min incubation, ATP (Sigma-Aldrich, St. Louis, Mo. 63178) and [g33P] ATP (specific activity 10 microCi/microliter) purchased at PerkinElmer (Boston, Mass., 02118 Cat #BLU 003H250UC) were added at a final total concentration of 10 mM. Reactions were carried out at room temperature for 2 hr and spotted onto P81 ion exchange cellulose chromatography paper (Reaction Biology). Filter paper was washed in 0.75% phosphoric acid to remove unincorporated ATP. The percent remaining kinase activity relative to a vehicle-containing (DMSO) kinase reaction was calculated for each kinase/inhibitor pair. IC50 values were calculated using Prism 5 (GraphPad).

Human FGFR2 (V565F) = molecular target: T2, Human FGFR2 (V565F) (Homo sapiens, UniProt P21802, V564F); assay: FGFR2 V565F mutation kinase assay (Reaction Biology HotSpot); type: biochemical; conditions: 100 uM ATP
T2 construct: purchased Reaction Biology Corporation (contract assay; enzyme is the CRO's own)
Procedure: as §1, with “ATP (specific activity 10 microCi/microliter) purchased at PerkinElmer (Boston, Mass., 02118 Cat #BLU 003H250UC) were added at a final total concentration of 10 mM.” left out

[1] = cells exposed to compound for 2 hours, washed, read after 72 hour incubation, read-out: SNU-16 IC50 (nM) 2 h
[2] = cells exposed to compound for 72 hours, no washing, read-out: SNU-16 IC50 (nM) 72 h

T2 sequence (P21802 22-822 isoform P21802-3 V565F limits assumed): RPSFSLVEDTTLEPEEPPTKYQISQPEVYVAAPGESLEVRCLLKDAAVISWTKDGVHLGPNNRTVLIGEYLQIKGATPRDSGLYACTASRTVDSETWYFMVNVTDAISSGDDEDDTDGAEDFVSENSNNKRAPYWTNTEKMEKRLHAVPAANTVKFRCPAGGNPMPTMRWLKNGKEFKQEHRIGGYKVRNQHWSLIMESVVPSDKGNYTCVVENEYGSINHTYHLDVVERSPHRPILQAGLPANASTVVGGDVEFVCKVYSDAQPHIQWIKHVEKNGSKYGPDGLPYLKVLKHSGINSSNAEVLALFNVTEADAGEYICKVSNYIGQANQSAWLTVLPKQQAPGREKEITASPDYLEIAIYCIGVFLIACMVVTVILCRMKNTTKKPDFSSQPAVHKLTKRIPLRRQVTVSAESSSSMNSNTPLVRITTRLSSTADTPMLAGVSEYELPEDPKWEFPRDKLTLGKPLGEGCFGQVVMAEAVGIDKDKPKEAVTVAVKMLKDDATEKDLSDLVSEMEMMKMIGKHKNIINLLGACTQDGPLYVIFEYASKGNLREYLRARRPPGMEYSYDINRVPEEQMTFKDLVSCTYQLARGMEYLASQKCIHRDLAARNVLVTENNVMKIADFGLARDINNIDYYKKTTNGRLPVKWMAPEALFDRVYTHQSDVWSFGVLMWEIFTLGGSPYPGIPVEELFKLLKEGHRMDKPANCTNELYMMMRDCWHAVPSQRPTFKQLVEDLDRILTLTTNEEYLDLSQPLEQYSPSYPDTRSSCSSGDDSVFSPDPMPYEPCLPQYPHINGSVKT
T1 sequence (P21802 22-821): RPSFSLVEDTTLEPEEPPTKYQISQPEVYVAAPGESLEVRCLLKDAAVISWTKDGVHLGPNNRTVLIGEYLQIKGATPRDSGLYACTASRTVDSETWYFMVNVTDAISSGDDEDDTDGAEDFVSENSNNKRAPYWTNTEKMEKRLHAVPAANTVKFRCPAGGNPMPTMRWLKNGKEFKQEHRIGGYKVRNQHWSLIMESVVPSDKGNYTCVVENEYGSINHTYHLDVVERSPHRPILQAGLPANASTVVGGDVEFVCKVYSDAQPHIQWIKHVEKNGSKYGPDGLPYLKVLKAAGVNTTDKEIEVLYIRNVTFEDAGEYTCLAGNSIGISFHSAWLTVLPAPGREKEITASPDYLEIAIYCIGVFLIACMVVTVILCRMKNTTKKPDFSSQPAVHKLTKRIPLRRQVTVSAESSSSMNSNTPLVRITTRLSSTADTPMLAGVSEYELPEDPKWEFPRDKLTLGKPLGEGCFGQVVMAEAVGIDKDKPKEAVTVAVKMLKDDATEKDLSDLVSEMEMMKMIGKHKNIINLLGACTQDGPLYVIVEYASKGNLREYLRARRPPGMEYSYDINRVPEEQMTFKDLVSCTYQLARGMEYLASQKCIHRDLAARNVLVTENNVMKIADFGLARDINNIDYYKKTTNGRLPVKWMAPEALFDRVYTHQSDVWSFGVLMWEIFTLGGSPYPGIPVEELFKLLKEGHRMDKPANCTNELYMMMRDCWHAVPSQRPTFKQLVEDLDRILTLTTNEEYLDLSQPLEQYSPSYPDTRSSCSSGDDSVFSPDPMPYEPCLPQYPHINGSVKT

Compound | IC50 (SNU-16 cells; [1]) | IC50 (SNU-16 cells; [2]) | IC50 (Human FGFR2 wildtype) | IC50 (Human FGFR2 (V565F))
C=CC(=O)N1CC(c2cc(C#Cc3cc(OC)cc(OC)c3F)c3c(N)ncnn23)C[C@@H]1COC (single isomer, unassigned) [Chemical Synthesis Example 5] | 1000 to 10000 nM | 100 to 1000 nM | – | –
C=CC(=O)N1C[C@@H](c2cc(C#Cc3cc(OC)cc(OC)c3)c3c(N)ncnn23)C[C@@H]1COC (single isomer, unassigned) [Chemical Synthesis Example 1] | 1000 to 10000 nM | 10 to 100 nM | – | –
C=CC(=O)N1CC(c2cc(C#Cc3c(F)c(OC)cc(OC)c3F)c3c(N)ncnn23)C[C@@H]1COC (single isomer, unassigned) [Chemical Synthesis Example 3] | 1000 to 10000 nM | 100 to 1000 nM | – | –
C=CC(=O)N1CC(c2cc(C#Cc3cc(OC)cc(OC)c3F)c3c(N)ncnn23)C[C@@H]1COC (single isomer, unassigned) [Chemical Synthesis Example 6] | ≤ 10 nM | ≤ 10 nM | ≤ 0.01 µM | 0.01 to 0.1 µM
C=CC(=O)N1C[C@H](c2cc(C#Cc3cc(OC)cc(OC)c3)c3c(N)ncnn23)C[C@@H]1COC (single isomer, unassigned) [Chemical Synthesis Example 2] | ≤ 10 nM | ≤ 10 nM | ≤ 0.01 µM | 0.01 to 0.1 µM
C=CC(=O)N1CC(c2cc(C#Cc3c(F)c(OC)cc(OC)c3F)c3c(N)ncnn23)C[C@@H]1COC (single isomer, unassigned) [Chemical Synthesis Example 4] | ≤ 10 nM | ≤ 10 nM | ≤ 0.01 µM | ≤ 0.01 µM
